The values below come from patent US7582645B2, “Pyrimidine derivatives for treatment of hyperproliferative disorders” (Bayer Pharmaceuticals Corporation, priority 2003, dated 2009).

The subject of the first test is HCT116 cells. The test is described as follows: HCT116 cytotoxic activity assay (Alamar Blue, 72 h). The conditions noted are these: Homo sapiens, HCT-116, 72 h compound exposure, greater than 500 nM but less than or equal to 2 μM. It counts as cell-based. As to the method: Representative compounds of this invention were tested for cytotoxicity using the above-described assay procedure with the following results: […]
As for `COc1ccc(-c2cc(Nc3ccc(Oc4ccnc(C(N)=O)c4)cc3)nc(N)n2)cn1` [Example 230, 4-(4-{[2-amino-6-(6-methoxypyridin-3-yl)pyrimidin-4-yl]amino}phenoxy) pyridine-2-carboxamide], the IC50 (usually the concentration at which inhibition is half-maximal) is 500 to 2000 nM.
On the same count and under the same terms, next, `CSc1ccc(-c2cc(Nc3ccc(Oc4ccnc(C#N)c4)cc3)nc(N)n2)cc1` [Example 231, 4-[4-({2-amino-6-[4-(methylthio)phenyl]pyrimidin-4-yl}amino)phenoxy]pyridine-2-carbonitrile]: 500 to 2000 nM.
The same measure, in the same setting: to `CN(C)c1ccc(-c2cc(Nc3ccc(Oc4ccnc(C#N)c4)cc3)nc(N)n2)cc1` [Example 232, 4-[4-({2-amino-6-[4-(dimethylamino)phenyl]pyrimidin-4-yl}amino)phenoxy]pyridine-2-carbonitrile] belongs 500 to 2000 nM.
On the same count and under the same terms, next, `N#CCc1ccc(-c2cc(Nc3ccc(Oc4ccnc(C#N)c4)cc3)nc(N)n2)cc1` [Example 235, 4-[4-({2-amino-6-(4-(cyanomethyl)phenyl]pyrimidin-4-yl}amino)phenoxy]pyridine-2-carbonitrile]: 500 to 2000 nM; `N#Cc1cc(Oc2ccc(Nc3cc(-c4cccs4)nc(N)n3)cc2)ccn1` [Example 239, 4-(4-{[2-amino-6-(2-thienyl)pyrimidin-4-yl]amino}phenoxy) pyridine-2-carbonitrile]: 500 to 2000 nM; `N#Cc1cc(Oc2ccc(Nc3cc(-c4ccc(Cl)cc4)nc(N)n3)cc2)ccn1` [Example 242, 4-(4-{[2-amino-6-(4-chlorophenyl)pyrimidin-4-yl]amino}phenoxy) pyridine-2-carbonitrile]: 500 to 2000 nM.
`N#Cc1cc(Oc2ccc(Nc3cc(-c4ccccc4N)nc(N)n3)cc2)ccn1` [Example 243, 4-(4-{[2-amino-6-(2-aminophenyl)pyrimidin-4-yl]amino}phenoxy) pyridine-2-carbonitrile] displayed an IC50 of 500 to 2000 nM.
As for `COc1ccc(C(C)C)cc1-c1cc(Nc2ccc(Oc3ccnc(C#N)c3)cc2)nc(N)n1` [Example 245, 4-(4-{[2-amino-6-(5-isopropyl-2-methoxyphenyl)pyrimidin-4-yl]amino}phenoxy)pyridine-2-carbonitrile], the IC50 was in the range of 500 to 2000 nM.
Still for that read-out and setting: next, `N#Cc1cc(Oc2ccc(Nc3cc(-c4ccc(F)cc4F)nc(N)n3)cc2)ccn1` [Example 247, 4-(4-{[2-amino-6-(2,4-difluorophenyl)pyrimidin-4-yl]amino}phenoxy)pyridine-2-carbonitrile]: 500 to 2000 nM; `N#Cc1cc(Oc2ccc(Nc3cc(-c4cccc(CO)c4)nc(N)n3)cc2)ccn1` [Example 248, 4-[4-({2-amino-6-[3-(hydroxymethyl)phenyl]pyrimidin-4-yl}amino)phenoxy]pyridine-2-carbonitrile]: 500 to 2000 nM; `NC(=O)c1cc(Oc2ccc(Nc3cc(-c4cccc(F)c4)nc(N)n3)cc2)ccn1` [Example 256, 4-(4-{[2-amino-6-(3-fluorophenyl)pyrimidin-4-yl]amino}phenoxy) pyridine-2-carboxamide]: 500 to 2000 nM.
On the same count and under the same terms, to `NC(=O)c1cc(Oc2ccc(Nc3cc(-c4ccc(Cl)cc4)nc(N)n3)cc2)ccn1` [Example 257, 4-(4-{[2-amino-6-(4-chlorophenyl)pyrimidin-4-yl]amino}phenoxy) pyridine-2-carboxamide] belongs 500 to 2000 nM; to `NC(=O)c1cc(Oc2ccc(Nc3cc(-c4cccc(C(F)(F)F)c4)nc(N)n3)cc2)ccn1` [Example 258, 4-[4-({2-amino-6-[3-(trifluoromethyl)phenyl]pyrimidin-4-yl}amino)phenoxy]pyridine-2-carboxamide], 500 to 2000 nM.

Still in this test, the particulars now being: Homo sapiens, HCT-116, 72 h compound exposure, greater than 2 μM.
Compound `N#Cc1cc(Oc2ccc(Nc3cc(-c4cccnc4)nc(N)n3)cc2)ccn1` [Example 236, 4-{4-[(2-amino-6-pyridin-3-ylpyrimidin-4-yl)amino]phenoxy} pyridine-2-carbonitrile] yielded an IC50 above 2000 nM.
Still for that read-out and setting: next, `COc1ncc(-c2cc(Nc3ccc(Oc4ccnc(C#N)c4)cc3)nc(N)n2)c(OC)n1` [Example 237, 4-{4-[(2-amino-2′,4′-dimethoxy-4,5′-bipyrimidin-6-yl)amino]phenoxy} pyridine-2-carbonitrile]: above 2000 nM; `N#Cc1cc(Oc2ccc(Nc3cc(-c4cccc(C(F)(F)F)c4)nc(N)n3)cc2)ccn1` [Example 244, 4-[4-({2-amino-6-[3-(trifluoromethyl)phenyl]pyrimidin-4-yl}amino)phenoxy]pyridine-2-carbonitrile]: above 2000 nM; `N#Cc1cc(Oc2ccc(Nc3cc(-c4ccc(Cl)c(Cl)c4)nc(N)n3)cc2)ccn1` [Example 253, 4-(4-{[2-amino-6-(3,4-dichlorophenyl)pyrimidin-4-yl]amino}phenoxy)pyridine-2-carbonitrile]: above 2000 nM.
Still for that read-out and setting: next, `NC(=O)c1cc(Oc2ccc(Nc3cc(-c4cccs4)nc(N)n3)cc2)ccn1` [Example 255, 4-(4-{[2-amino-6-(2-thienyl)pyrimidin-4-yl]amino}phenoxy) pyridine-2-carboxamide]: above 2000 nM.
The same measure, in the same setting: next, `NC(=O)c1cc(Oc2ccc(Nc3cc(-c4ccc(-c5ccccc5)c(F)c4)nc(N)n3)cc2)ccn1` [Example 260, 4-(4-{[2-amino-6-(2-fluorobiphenyl-4-yl)pyrimidin-4-yl]amino}phenoxy) pyridine-2-carboxamide]: above 2000 nM.
`NC(=O)c1cc(Oc2ccc(Nc3cc(-c4cccc(CO)c4)nc(N)n3)cc2)ccn1` [Example 265, 4-[4-({2-amino-6-[3-(hydroxymethyl)phenyl]pyrimidin-4-yl}amino)phenoxy]pyridine-2-carboxamide]: the IC50 was above 2000 nM.

The same test, now with this note: Homo sapiens, HCT-116, 72 h compound exposure, less than or equal to 500 nM.
`COc1ccc(OC)c(-c2cc(Nc3ccc(Oc4ccnc(C#N)c4)cc3)nc(N)n2)c1` [Example 233, 4-(4-{[2-amino-6-(2,5-dimethoxyphenyl)pyrimidin-4-yl]amino}phenoxy)pyridine-2-carbonitrile] came in with an IC50 of at most 500 nM.
Same read-out and setting: to `COc1cccc(-c2cc(Nc3ccc(Oc4ccnc(C#N)c4)cc3)nc(N)n2)c1` [Example 234, 4-(4-{[2-amino-6-(3-methoxyphenyl)pyrimidin-4-yl]amino}phenoxy) pyridine-2-carbonitrile] belongs at most 500 nM; to `N#Cc1cc(Oc2ccc(Nc3cc(-c4cccc(N)c4)nc(N)n3)cc2)ccn1` [Example 238, 4-(4-{[2-amino-6-(3-aminophenyl)pyrimidin-4-yl]amino}phenoxy) pyridine-2-carbonitrile], at most 500 nM.
Same read-out and setting: next, `N#Cc1cc(Oc2ccc(Nc3cc(-c4cccc(F)c4)nc(N)n3)cc2)ccn1` [Example 240, 4-(4-{[2-amino-6-(3-fluorophenyl)pyrimidin-4-yl]amino}phenoxy) pyridine-2-carbonitrile]: at most 500 nM; `N#Cc1cc(Oc2ccc(Nc3cc(-c4ccccc4F)nc(N)n3)cc2)ccn1` [Example 241, 4-(4-{[2-amino-6-(2-fluorophenyl)pyrimidin-4-yl]amino}phenoxy) pyridine-2-carbonitrile]: at most 500 nM; `Cc1ccccc1-c1cc(Nc2ccc(Oc3ccnc(C#N)c3)cc2)nc(N)n1` [Example 246, 4-(4-{[2-amino-6-(2-methylphenyl)pyrimidin-4-yl]amino}phenoxy) pyridine-2-carbonitrile]: at most 500 nM.
On the same count and under the same terms, next, `Cc1ccc(-c2cc(Nc3ccc(Oc4ccnc(C#N)c4)cc3)nc(N)n2)cc1` [Example 249, 4-(4-{[2-amino-6-(4-methylphenyl)pyrimidin-4-yl]amino}phenoxy) pyridine-2-carbonitrile]: at most 500 nM; `Cc1cccc(-c2cc(Nc3ccc(Oc4ccnc(C#N)c4)cc3)nc(N)n2)c1` [Example 250, 4-(4-{[2-amino-6-(3-methylphenyl)pyrimidin-4-yl]amino}phenoxy) pyridine-2-carbonitrile]: at most 500 nM.
The compound `N#Cc1cc(Oc2ccc(Nc3cc(-c4ccsc4)nc(N)n3)cc2)ccn1` [Example 251, 4-(4-{[2-amino-6-(3-thienyl)pyrimidin-4-yl]amino}phenoxy) pyridine-2-carbonitrile] yielded an IC50 of at most 500 nM.
Still for that read-out and setting: next, `Cc1ccc(-c2cc(Nc3ccc(Oc4ccnc(C#N)c4)cc3)nc(N)n2)cc1N` [Example 252, 4-(4-{[2-amino-6-(3-amino-4-methylphenyl)pyrimidin-4-yl]amino}phenoxy)pyridine-2-carbonitrile]: at most 500 nM; `NC(=O)c1cc(Oc2ccc(Nc3cc(-c4cccc(N)c4)nc(N)n3)cc2)ccn1` [Example 254, 4-(4-{[2-amino-6-(3-aminophenyl)pyrimidin-4-yl]amino}phenoxy) pyridine-2-carboxamide]: at most 500 nM; `CCCCc1ccc(-c2cc(Nc3ccc(Oc4ccnc(C(N)=O)c4)cc3)nc(N)n2)cc1` [Example 259, 4-(4-{[2-amino-6-(4-butylphenyl)pyrimidin-4-yl]amino}phenoxy) pyridine-2-carboxamide]: at most 500 nM.
The same measure, in the same setting: next, `CCc1cccc(-c2cc(Nc3ccc(Oc4ccnc(C(N)=O)c4)cc3)nc(N)n2)c1` [Example 261, 4-(4-{[2-amino-6-(3-ethylphenyl)pyrimidin-4-yl]amino}phenoxy) pyridine-2-carboxamide]: at most 500 nM.
Regarding `COc1ccc(C(C)C)cc1-c1cc(Nc2ccc(Oc3ccnc(C(N)=O)c3)cc2)nc(N)n1` [Example 262, 4-(4-{[2-amino-6-(5-isopropyl-2-methoxyphenyl)pyrimidin-4-yl]amino}phenoxy)pyridine-2-carboxamide], the IC50 is at most 500 nM.
The same measure, in the same setting: to `Cc1ccccc1-c1cc(Nc2ccc(Oc3ccnc(C(N)=O)c3)cc2)nc(N)n1` [Example 263, 4-(4-{[2-amino-6-(2-methylphenyl)pyrimidin-4-yl]amino}phenoxy) pyridine-2-carboxamide] belongs at most 500 nM; to `NC(=O)c1cc(Oc2ccc(Nc3cc(-c4ccc(F)cc4F)nc(N)n3)cc2)ccn1` [Example 264, 4-(4-{[2-amino-6-(2,4-difluorophenyl)pyrimidin-4-yl]amino}phenoxy)pyridine-2-carboxamide], at most 500 nM.
